For eleven compounds, IC50 results are on record in patent US20090004185A1, “AMINO-SUBSTITUTED QUINAZOLINE DERIVATIVES AS INHIBITORS OF BETA-CATENIN/TCF-4 PATHWAY AND CANCER TREATMENT AGENTS” (WYETH, priority 2007, published 2009).

Bounds are passed on as bounds.

In one experiment the test system is β-catenin/Tcf-4. Kind of experiment: cells. The class given is cell-based. Particulars: 24 hours of incubation with compound, ratio Firefly/Renilla luciferase. Put shortly:
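SW480-derived lines with integrated reporters (Tcf-4-driven firefly luciferase; SV40 firefly as specificity control; SV40 Renilla for cell number/toxicity), treated 24 hours with titrated compounds, final 0.316% DMSO. Dual-luciferase read-out; firefly/Renilla ratio as % of control, duplicate plates, IC50 (nM) from curve fit.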

In a further experiment the test system is SV40-Luc. Description: SV40-Luc control luciferase reporter assay, SV 5A8 cell line (SV40-Luc and SV40-R-Luc), control for non-specific inhibitors. The class given is cell-based, human. To be noted: SV 5A8 cells derived from SW480, 24 hours of incubation with compound, ratio Firefly/Renilla luciferase. Put shortly:
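SW480-derived lines with integrated reporters: SV 5A8 (SV40 firefly plus SV40 Renilla), Tcf 33.13 and Tcf 22C11 (Tcf-4 firefly plus SV40 Renilla). Cells seeded 1×10^4/well, compounds added 20-24 h later at titrated concentrations (final DMSO 0.316%) for 24 h. Firefly/Renilla ratio, as % of control, gave IC50 (nM).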
For orientation: In a reporter assay the amount or activity of a reporter protein is the signal.

[1] abbreviates: Homo sapiens, SW480, 24 h, Tcf 33.13 cells derived from SW480.
Where [2] appears, read: Homo sapiens, Tcf22C11, 24 h, Tcf 22C11 cells derived from SW480.

The IC50 is the concentration at which inhibition is half-maximal.

As to `CN(C)c1nc(NCc2ccc(NC(=O)c3ccc(F)cc3)cc2)c2cc(/C=C\c3ccccc3)ccc2n1` [Example 171], the IC50 in the experiment on β-catenin/Tcf-4 (Tcf 22C11 cells derived from SW480) was 2940 nM; in the experiment with β-catenin/Tcf-4 (Tcf 33.13 cells derived from SW480), 4280 nM; with SV40-Luc it was above 19300 nM.

In the case of `Cc1ccc2c(NCc3ccc(NC(=O)C4CCN(Cc5ccccc5)CC4)cc3)nc(N3CCN[C@H](C)C3)nc2c1` [Example 143, 1-benzyl-N-{4-[({7-methyl-2-[(3R)-3-methylpiperazin-1-yl]quinazolin-4-yl}amino)methyl]phenyl}piperidine-4-carboxamide], the IC50 with β-catenin/Tcf-4 (setting [1]) is 1470 nM; in the experiment with β-catenin/Tcf-4 (setting [2]), 1930 nM; in the experiment with SV40-Luc (Homo sapiens, SV5A8, 24 h) it was above 8870 nM.

With `Cc1ccc2c(NCc3ccc(NC(=O)c4ccc(Cl)cc4)cc3)nc(N(C)C)nc2c1` [Example 196, 4-chloro-N-[4-({[2-(dimethylamino)-7-methyl-quinazolin-4-yl]amino}methyl)phenyl]benzamide], the IC50 in the experiment with β-catenin/Tcf-4 (setting [1]) is 227 nM; in the experiment on β-catenin/Tcf-4 (setting [2]), 223 nM; in the experiment on SV40-Luc (Homo sapiens, SV5A8, 24 h), above 1400 nM.

Consider `Cc1ccc2c(NCc3ccc(NC(=O)c4ccc(F)cc4)cc3)nc(N3CCN(c4ccccn4)CC3)nc2c1` [Example 200, 4-fluoro-N-[4-({[7-methyl-2-(4-pyridin-2-ylpiperazin-1-yl)quinazolin-4-yl]amino}methyl)phenyl]benzamide], for which the concentration for half-maximal inhibition (IC50) in the experiment with β-catenin/Tcf-4 (setting [1]) is 491 nM; with β-catenin/Tcf-4 (setting [2]) it was 804 nM; in the experiment with SV40-Luc (Homo sapiens, SV5A8, 24 h) it was above 4560 nM.

Take `CNc1nc(NCc2ccc(NC(=O)c3ccc(Cl)nc3)cc2)c2cc(OC)ccc2n1` [Example 31, 6-chloro-N-[4-({[6-methoxy-2-(methylamino)quinazolin-4-yl]amino}methyl)phenyl]nicotinamide]: the half-inhibitory concentration (IC50) was 4120 nM in the experiment with β-catenin/Tcf-4 (setting [1]); 5950 nM with β-catenin/Tcf-4 (setting [2]); above 22300 nM with SV40-Luc (Homo sapiens, SV5A8, 24 h).

In the case of `Cc1ccc2nc(N(C)C)nc(NCc3ccc(NC(=O)c4ccc(F)c(F)c4)cc3)c2c1` [Example 36, N-[4-({[2-(dimethylamino)-6-methylquinazolin-4-yl]amino}methyl)phenyl]-3,4-difluorobenzamide], the IC50 was 866 nM with β-catenin/Tcf-4 (setting [1]); 1170 nM in the experiment with β-catenin/Tcf-4 (setting [2]); above 5590 nM with SV40-Luc (Homo sapiens, SV5A8, 24 h).

As for `Cc1ccc2c(N[C@@H](C)c3ccc(NC(=O)c4ccc(F)cc4)cc3)nc(N(C)C)nc2c1` [Example 271, (S)—N-(4-(1-(2-(dimethylamino)-7-methylquinazolin-4-ylamino)ethyl)phenyl)-4-fluorobenzamide], the IC50 was 1080 nM in the experiment with β-catenin/Tcf-4 (setting [1]); 970 nM in the experiment on β-catenin/Tcf-4 (setting [2]); above 5640 nM with SV40-Luc (Homo sapiens, SV5A8, 24 h).

In the case of `CC(C)c1ccc2c(NCc3ccc(NC(=O)C4CCN(Cc5ccccc5)CC4)cc3)nc(N(C)C)nc2c1` [Example 63, 1-benzyl-N-[4-({[2-(dimethylamino)-7-isopropylquinazolin-4-yl]amino}methyl)phenyl]piperidine-4-carboxamide], the IC50 is 1190 nM in the experiment on β-catenin/Tcf-4 (setting [1]); 2150 nM in the experiment on β-catenin/Tcf-4 (setting [2]); above 8720 nM in the experiment with SV40-Luc (Homo sapiens, SV5A8, 24 h).

For `C[C@H](Nc1nc(N(C)C)nc2cc(I)ccc12)c1ccc(NC(=O)c2ccc(Cl)nc2)cc1` [Example 105, 6-chloro-N-[4-((1S)-1-{[2-(dimethylamino)-7-iodoquinazolin-4-yl]amino}ethyl)phenyl]nicotinamide], the IC50 was 1470 nM with β-catenin/Tcf-4 (setting [1]); 3780 nM in the experiment on β-catenin/Tcf-4 (setting [2]); above 8210 nM in the experiment on SV40-Luc (Homo sapiens, SV5A8, 24 h).

With `CNc1nc(NCc2ccc(NC(=O)c3ccc(F)c(F)c3)cc2)c2c(C)cccc2n1` [Example 189, 3,4-difluoro-N-[4-({[5-methyl-2-(methylamino)quinazolin-4-yl]amino}methyl)phenyl]benzamide], the IC50 is 1140 nM with β-catenin/Tcf-4 (setting [1]); 1830 nM in the experiment on β-catenin/Tcf-4 (setting [2]); above 4570 nM with SV40-Luc (Homo sapiens, SV5A8, 24 h).

For the compound `Cc1cc(C)c2nc(N(C)C)nc(NCc3ccc(NC(=O)c4ccc(F)cc4)cc3)c2c1` [Example 52, N-[4-({[2-(dimethylamino)-6,8-dimethylquinazolin-4-yl]amino}methyl)phenyl]-4-fluorobenzamide], the IC50 in the experiment on β-catenin/Tcf-4 (setting [1]) is 1310 nM; in the experiment with β-catenin/Tcf-4 (setting [2]), 1650 nM; in the experiment on SV40-Luc (Homo sapiens, SV5A8, 24 h) it was above 22500 nM.
